In series [1] the target is T1, GST-LXRβ ligand-binding domain (Homo sapiens, UniProt P55055, INS174Q).
T1 construct: amino acids 156-461; NP009052; made in house; host or cells: E. coli
T1 sequence (P55055 with tags, fused parts or gaps INS174Q limits assumed): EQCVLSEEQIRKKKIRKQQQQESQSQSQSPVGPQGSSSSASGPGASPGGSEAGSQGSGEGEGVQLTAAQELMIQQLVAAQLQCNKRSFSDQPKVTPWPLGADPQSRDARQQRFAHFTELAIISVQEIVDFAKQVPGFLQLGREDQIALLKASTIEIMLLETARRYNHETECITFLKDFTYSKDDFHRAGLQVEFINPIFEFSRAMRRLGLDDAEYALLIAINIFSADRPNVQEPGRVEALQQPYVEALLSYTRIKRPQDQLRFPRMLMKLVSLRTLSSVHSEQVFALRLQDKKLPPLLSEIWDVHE
Nature of the series: TR-FRETβ activity assay (NCoA3 coactivator peptide recruitment). As to conditions: 1 μM 24(S)-25-epoxycholesterol as prestimulating agonist; inverse agonist unless *. It counts as biochemical. Summed up:
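Coactivator recruitment read as TR-FRET (ex 340, em 615 and 665 nm) after 1 h equilibration at 4° C, in triplicate. Mix held 76 nM GST-tagged LXRβ LBD (aa 156-461, E. coli), 400 nM biotin-NCoA3 peptide, Tb-cryptate anti-GST, streptavidin-XL665, 240 mM KCl buffer.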

In series [2] the target is T2, LXRα ligand-binding domain (LBD) (Homo sapiens, UniProt Q13133).
T2 construct: expressed in transfected cells; host or cells: HEK293
T2 sequence (Q13133 155-447): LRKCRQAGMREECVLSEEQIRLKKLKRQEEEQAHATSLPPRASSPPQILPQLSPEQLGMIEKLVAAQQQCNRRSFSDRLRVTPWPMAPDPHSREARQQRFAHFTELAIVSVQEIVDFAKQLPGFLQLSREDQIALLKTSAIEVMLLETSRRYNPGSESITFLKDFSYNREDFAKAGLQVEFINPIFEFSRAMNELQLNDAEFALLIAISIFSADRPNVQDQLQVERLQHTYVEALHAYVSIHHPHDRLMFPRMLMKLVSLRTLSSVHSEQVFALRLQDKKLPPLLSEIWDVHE
The series can be described thus: LXR Gal4 reporter transient transfection assay, mammalian two-hybrid, LBD-M2H Gal4α. It counts as cell-based. As to conditions: HEK293 cells; inverse agonist unless *. The protocol: (§1) The tested compounds were usually dissolved, tested and stored as 20 mM stock solutions in DMSO. Since sulfonyl acetic acid derivatives tend to decarboxylate under these conditions, these stock solutions were prepared, tested and stored as 20 mM DMSO stock solutions containing 100 mM trifluoroacetic acid (5 equivalents). Sulfonyl acetic acid derivatives are shelf stable as solid at rt for long time as reported by Griesbrecht et al. (Synlett 2010:374) or Faucher et al. (J. Med. Chem. 2004; 47:18).
(§2) LXR Gal4 Reporter Transient Transfection Assays
(§3) LXRα and LXRβ activity status was determined via detection of interaction with coactivator and corepressor proteins in mammalian two-hybrid experiments (M2H). For this, via transient transfection the full length (FL) proteins of LXRα (amino acids 1-447; NP005684; SEQ ID NO:1) or LXRβ-(amino acids 1-461; NP009052; SEQ ID NO:2) or the ligand-binding domains (LBD) of LXRα (amino acids 155-447 SEQ ID NO:3) or LXR (amino acids 156-461; SEQ ID NO:4) were expressed from pCMV-AD (Stratagene) as fusions to the transcriptional activation domain of NFkB. As cofactors, domains of either the steroid receptor coactivator 1 (SRC1; amino acids 552-887; SEQ ID NO:5) or of the corepressor NCoR (amino acids 1906-2312; NP006302; SEQ ID NO:6) were expressed as fusions to the DNA binding domain of the yeast transcription factor GAL4 (from pCMV-BD; Stratagene). Interaction was monitored via activation of a coexpressed Firefly Luciferase Reporter gene under control of a promoter containing repetitive GAL4 response elements (vector pFRLuc; Stratagene). Transfection efficiency was controlled via cotransfection of constitutively active pRL-CMV Renilla reniformis luciferase reporter (Promega). HEK293 cells were grown in minimum essential medium (MEM) with 2 mM L-glutamine and Earle's balanced salt solution supplemented with 8.3% fetal bovine serum, 0.1 mM non-essential amino acids, 1 mM sodium pyruvate, at 37° C. in 5% CO2. 3.5×10^4 cells/well were plated in 96-well cell culture plates in growth medium supplemented with 8.3% fetal bovine serum for 16-20 h to—90% confluency. For transfection, medium was taken off and LXR and cofactor expressing plasmids as well as the reporter plasmids are added in 30 μL OPTIMEM/well including polyethylene-imine (PEI) as vehicle. Typical amounts of plasmids transfected/well: pCMV-AD-LXR (5 ng), pCMV-BD-cofactor (5 ng), pFR-Luc (100 ng), pRL-CMV (0.5 ng). Compound stocks were prepared in DMSO, prediluted in MEM to a total volume of 120 μL, and added 4 h after addition of the transfection mixture (final vehicle concentration not exceeding 0.2%). Cells were incubated for additional 16 h, lysed for 10 min in 1×Passive Lysis Buffer (Promega) and Firefly and Renilla luciferase activities were measured sequentially in the same cell extract using buffers containing D-luciferine and coelenterazine, respectively. Measurements of luminescence were done in a BMG-luminometer.

In series [3] the target is T3, LXRβ ligand-binding domain (LBD) (Homo sapiens, UniProt P55055, INS174Q).
T3 construct: or LXR (amino acids 156-461); expressed in transfected cells; host or cells: HEK293
T3 sequence (P55055 with tags, fused parts or gaps INS174Q limits assumed): T1 sequence (P55055 with tags, fused parts or gaps INS174Q limits assumed)
The series can be described thus: LXR Gal4 reporter transient transfection assay, mammalian two-hybrid, LBD-M2H Gal4β. As to conditions: HEK293 cells; inverse agonist unless *. It counts as cell-based. Here is the method:
as §1, §2, §3

Series [4] is described as follows: Chemical stability of stock solutions and solids. The format is physicochemical. As to conditions: sodium salt. The protocol:
To a solution of compound 7/9 (150 mg, 0.24 mmol) in MeOH (10 mL) and water (10 mL) was added NaOH ([…], 0.48 mmol) at rt. The mixture was stirred at rt overnight and concentrated. The residue was washed with H2O to give compound 14 as a white solid.
as §1

Series [5] is described as follows: Pharmacokinetics in mice after single oral dosing, blood and liver exposure by LC-MS. It counts as in vivo, mice (C57/bl6/J). Here is the method: The pharmacokinetics of the compounds was assessed in mice after single dosing and oral administrations. Blood and liver exposure was measured via LC-MS.
The study design was as follows:
Animals: C57/bl6/J (Janvier) males Diet: standard rodent chow Dose: 20 mg/kg Animal handling: animals were withdrawn from food at least 12 h before administration Design: single dose oral administration, n=3 animals per group Sacrifice: at stated time point (4, 12 or 24 h) after administration Bioanalytics: LC-MS of liver and blood samples

For series [6] the following is noted: rat liver microsome; cited from earlier work.
The conditions of series [7]: human liver microsome; cited from earlier work. In general terms: Liver microsomes are a subcellular fraction often used to study metabolism.
In series [8] the test system is T4, LXR.
T4 construct: rows headed: activity on LXR; other: confirmed by applicant; LXRα (amino acids 1-447); NP005684; NP009052
The series can be described thus: Activity on LXR, assay not specified. As to conditions: confirmed by applicant. The text has this: The following compounds from this application, in particular, are further described in some publications, mainly from the same group of inventors/authors: SR9238 is described as a liver-selective LXR inverse agonist that suppresses hepatic steatosis upon parenteral administration (Griffett et al., ACS Chem. Biol. 2013; 8:559). […] This compound then has systemic exposure. In addition, it was described, that SR9238 suppresses fibrosis in a model of NASH again after parenteral administration (Griffett et al., Mol. Metab. 2015; 4:35). With a related SR9243 the effects on aerobic glycolysis (Warburg effect) and lipogenesis were described (Flaveny et al., Cancer Cell 2015; 28:42) and the NASH-supressing data obtained with SR9238 was confirmed by Huang et al. (BioMed Res. Int. 2018; 8071093) using SR9243.

Series [9] has as its system LXR. As to conditions: literature; cited from earlier work.
The mark [10] stands for this setting: single oral dose 20 mg/kg, time point 4 h, below LLOQ.

Each structure is given as a SMILES string. Read-outs that look alike come from different tables or passages of the source.

A word on the EC50: it is the concentration needed to bring the measured effect to its halfway point. For the compound `COc1cc(-c2ccc(CO)c(C(C)(C)C(=O)[O-])c2)ccc1CN(Cc1ccc(C(F)(F)F)o1)Cc1c(C)ccc2ccccc12.[Na+]` [Example 14], the values for the EC50 in series [1], in series [2] and in series [3] were 1000 to 10000 nM, 1000 to 10000 nM and under 100 nM, respectively. In series [4], the stability upon standing entry is “tends to cyclisize back to lacton 7/9 upon standing”.
`Cc1cc(C)c(S(=O)(=O)N(Cc2ccc(-c3cccc(S(C)(=O)=O)c3)cc2)Cc2ccc(C(F)(F)F)o2)c(C)c1` [GSK2033, reference compound]: in series [5] (single dose oral administration, 20 mg/kg), the oral bioavailability result was “not orally bioavailable and hepatoselective”. Also, the blood/plasma exposure entry in series [5] (setting [10]) is recorded as “(14.4 ng/mL)”. Moreover, the liver exposure entry in [5] (setting [10]) is given as “(9.6 ng/mL)”. Further, the “clearance ClInt” value in [6] and in series [7] was over 1.0 mL/min/mg prot throughout.
For `Cc1cc(C)c(S(=O)(=O)N(Cc2ccc(-c3cccc(S(C)(=O)=O)c3)cc2)Cc2ccc(C(=O)O)o2)c(C)c1` [SR10389], in the series on LXR [8], the “activity on LXR” value was “inactive on LXR”. Further, the LXR activity result in the series with LXR [9] is “LXR inactive”.

(Values after patent US20200131144A1, “AMINE OR (THIO)AMIDE CONTAINING LXR MODULATORS” (Phenex-FXR GmbH, priority 2017, published 2020).)
